Measured values taken from patent US20240051946A1, “TARGETED PROTEIN DEGRADATION OF PARP14 FOR USE IN THERAPY” (Ribon Therapeutics, Inc., priority 2022, published 2024).

Target: T1, catalytic domain of human PARP14 (residues 1611 to 1801) with NanoLuc tag (Homo sapiens, UniProt Q460N5)
T1 construct: expressed in transfected cells; host or cells: HEK-293T cells (ATCC), plasmid pRTX240 in pcDNA3.1(-)
T1 sequence (Q460N5 1611-1801): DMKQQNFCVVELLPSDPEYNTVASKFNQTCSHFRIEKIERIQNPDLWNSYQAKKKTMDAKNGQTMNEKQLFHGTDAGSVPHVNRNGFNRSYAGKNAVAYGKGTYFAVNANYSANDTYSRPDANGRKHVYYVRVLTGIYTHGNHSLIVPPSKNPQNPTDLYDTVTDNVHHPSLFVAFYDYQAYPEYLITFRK
Test: NanoLuc assay for the degradation of PARP14
Format: cell-based
Details: Assay A; NanoLuc-PARP14 overexpressed in HEK-293T cells; 2 hours at 37 degrees; luminescence
Protocol: The catalytic domain of human PARP14 (residues 1611 to 1801, GenBank Accession No. NM_017554) was inserted into the pcDNA3.1(−) vector. The insert also contained a NanoLuc tag on the N terminus of the PARP14 protein.
Degradation of PARP14 protein was assessed using measurement of the NanoLuc tag as proxy for the PARP14 protein. PARP14 with NanoLuc tag was overexpressed in […] cells (ATCC) using the plasmid described in Table 1. Plasmid DNA was diluted in empty vector DNA then added to 1.163 mL of phenol red free OptiMEM (Thermo Fisher). Plasmid DNA concentrations used in each assay described in Table 1. The plasmid DNA was mixed with 78.5 μL of Fugene HD (Promega) and allowed to incubate 5 minutes.
Next, 1.125 mL were added to 10 million 293T cells in DMEM (Thermo Fisher) supplemented with 10% FBS (VWR) and 1× Glutamax (Gibco). The transfection was incubated for 24 hrs at 37 degrees in an incubator supplemented with 5% CO2. The cells were then trypsinized and brought up in phenol red free OptiMEM media. Transfected HEK-293T cells were diluted to […] and then added to assay plate (Corning 3574) using a Multidrop (Thermo Fisher) to add 40 μL per well of the 384 well plate, resulting in 5,000 cells per well. 40 nL of a dose response curve diluted in DMSO of each test compound was added to the cell plate using a Mosquito (TTP Labtech) and the plate was incubated at 37 degrees for 2 hours. Assay plate was brought to room temperature then 20 μL per well of NanoGlo (Promega) was added to the plate. Luminescence was measured on an Envision (Perkin Elmer).
The average DMSO was calculated from 32 wells containing 0.1% DMSO only in columns 12 and 24 of the assay plate. The % of DMSO values were calculated as described below: […]
The % of DMSO values were plotted as a function of compound concentration and the following 4-parameter fit was applied to derive the DC50 values:
where top, bottom, and Hill Coefficient are allowed to float. Y is the % of DMSO and X is the compound concentration.
DC50 data for the Example compounds is provided below in Table 2 (“+” is <0.1 μM; “++” is ≥0.1 μM and <1 μM; and “+++” is ≥1 μM).

DC50 [nM]	SMILES
< 100	CC(=O)N1CCC(COc2cc(F)c3c(=O)[nH]c(CCC4CCN(C(=O)C5CCN(CC6CCN(c7cccc8c7C(=O)N(C7CCC(=O)NC7=O)C8=O)CC6)CC5)CC4)nc3c2)CC1 (stereo not shown) [Example 26, 4-(4-((4-(4-(2-(7-((1-acetylpiperidin-4-yl)methoxy)-5-fluoro-4-oxo-3,4-dihydroquinazolin-2-yl)ethyl)piperidine-1-carbonyl)piperidin-1-yl)methyl)piperidin-1-yl)-2-(2,6-dioxopiperidin-3-yl)isoindoline-1,3-dione]
< 100	O=C1CCC(N2C(=O)c3cccc(N4CCN(CC5CCN(C(=O)CN6CCC(SCc7nc8cc(NC9CCCC9)cc(F)c8c(=O)[nH]7)CC6)CC5)CC4)c3C2=O)C(=O)N1 (stereo not shown) [Example 1, 4-(4-((1-(2-(4-(((7-(cyclopentylamino)-5-fluoro-4-oxo-3,4-dihydroquinazolin-2-yl)methyl)thio)piperidin-1-yl)acetyl)piperidin-4-yl)methyl)piperazin-1-yl)-2-(2,6-dioxopiperidin-3-yl)isoindoline-1,3-dione]
< 100	O=C1CCC(N2C(=O)c3cccc(N4CCN(CC5CCN(C(=O)CN6CCC(SCc7nc8cc(OCC9CCOCC9)cc(F)c8c(=O)[nH]7)CC6)CC5)CC4)c3C2=O)C(=O)N1 (stereo not shown) [Example 2, 2-(2,6-dioxopiperidin-3-yl)-4-(4-((1-(2-(4-(((5-fluoro-4-oxo-7-((tetrahydro-2H-pyran-4-yl)methoxy)-3,4-dihydroquinazolin-2-yl)methyl)thio)piperidin-1-yl)acetyl)piperidin-4-yl)methyl)piperazin-1-yl)isoindoline-1,3-dione]
< 100	O=C(CN1CCC(SCc2nc3cc(OCC4CCOCC4)cc(F)c3c(=O)[nH]2)CC1)NCCCCCC(=O)N1CCC(c2cccc(NC3CCC(=O)NC3=O)c2)CC1 (stereo not shown) [Example 12, N-(6-(4-(3-((2,6-dioxopiperidin-3-yl)amino)phenyl)piperidin-1-yl)-6-oxohexyl)-2-(4-(((5-fluoro-4-oxo-7-((tetrahydro-2H-pyran-4-yl)methoxy)-3,4-dihydroquinazolin-2-yl)methyl)thio)piperidin-1-yl)acetamide]
100 to 1000	O=C(CN1CCC(SCc2nc3cc(OCC4CCOCC4)cc(F)c3c(=O)[nH]2)CC1)NCCCCNC(=O)c1cccc(N2CCC(=O)NC2=O)c1 [Example 4, 3-(2,4-dioxotetrahydropyrimidin-1(2H)-yl)-N-(4-(2-(4-(((5-fluoro-4-oxo-7-((tetrahydro-2H-pyran-4-yl)methoxy)-3,4-dihydroquinazolin-2-yl)methyl)thio)piperidin-1-yl)acetamido)butyl)benzamide]
< 100	O=C(CN1CCC(SCc2nc3cc(OCC4CCOCC4)cc(F)c3c(=O)[nH]2)CC1)NCCCCCCN1CCC(c2cccc(NC3CCC(=O)NC3=O)c2)CC1 (stereo not shown) [Example 16, N-(6-(4-(3-((2,6-dioxopiperidin-3-yl)amino)phenyl)piperidin-1-yl)hexyl)-2-(4-(((5-fluoro-4-oxo-7-((tetrahydro-2H-pyran-4-yl)methoxy)-3,4-dihydroquinazolin-2-yl)methyl)thio)piperidin-1-yl)acetamide]
< 100	O=C(CN1CCC(SCc2nc3cc(OCC4CCOCC4)cc(F)c3c(=O)[nH]2)CC1)NCCCC(=O)N1CCC(c2ccc(NC3CCC(=O)NC3=O)cc2)CC1 (stereo not shown) [Example 8, N-(4-(4-(4-((2,6-dioxopiperidin-3-yl)amino)phenyl)piperidin-1-yl)-4-oxobutyl)-2-(4-(((5-fluoro-4-oxo-7-((tetrahydro-2H-pyran-4-yl)methoxy)-3,4-dihydroquinazolin-2-yl)methyl)thio)piperidin-1-yl)acetamide]
< 100	CC(=O)N1CCC(COc2cc(F)c3c(=O)[nH]c(CSC4CCN(C(=O)C5CCN(CC6CCN(c7cccc8c7C(=O)N(C7CCC(=O)NC7=O)C8=O)CC6)CC5)CC4)nc3c2)CC1 (stereo not shown) [Example 22, 4-(4-((4-(4-(((7-((1-acetylpiperidin-4-yl)methoxy)-5-fluoro-4-oxo-3,4-dihydroquinazolin-2-yl)methyl)thio)piperidine-1-carbonyl)piperidin-1-yl)methyl)piperidin-1-yl)-2-(2,6-dioxopiperidin-3-yl)isoindoline-1,3-dione]
< 100	CC(=O)N1CCC(COc2cc(F)c3c(=O)[nH]c(CSC4CCN(C(=O)CNc5cccc6c5C(=O)N(C5CCC(=O)NC5=O)C6=O)CC4)nc3c2)CC1 (stereo not shown) [Example 21, 4-((2-(4-(((7-((1-acetylpiperidin-4-yl)methoxy)-5-fluoro-4-oxo-3,4-dihydroquinazolin-2-yl)methyl)thio)piperidin-1-yl)-2-oxoethyl)amino)-2-(2,6-dioxopiperidin-3-yl)isoindoline-1,3-dione]
< 100	CC(=O)N1CCC(COc2cc(F)c3c(=O)[nH]c(CSC4CCN(CC5CCN(c6ccc7c(c6)C(=O)N(C6CCC(=O)NC6=O)C7=O)CC5)CC4)nc3c2)CC1 (stereo not shown) [Example 33, 5-(4-((4-(((7-((1-acetylpiperidin-4-yl)methoxy)-5-fluoro-4-oxo-3,4-dihydroquinazolin-2-yl)methyl)thio)piperidin-1-yl)methyl)piperidin-1-yl)-2-(2,6-dioxopiperidin-3-yl)isoindoline-1,3-dione]
< 100	O=C1CCC(N2C(=O)c3ccc(N4CCC(CN5CCC(SCc6nc7cc(OCC8CC8)cc(F)c7c(=O)[nH]6)CC5)CC4)cc3C2=O)C(=O)N1 (stereo not shown) [Example 40, 5-(4-((4-(((7-(cyclopropylmethoxy)-5-fluoro-4-oxo-3,4-dihydroquinazolin-2-yl)methyl)thio)piperidin-1-yl)methyl)piperidin-1-yl)-2-(2,6-dioxopiperidin-3-yl)isoindoline-1,3-dione]
< 100	O=C(CN1CCC(SCc2nc3cc(OCC4CCOCC4)cc(F)c3c(=O)[nH]2)CC1)NCCCCCCNC(=O)c1cccc(N2CCC(=O)NC2=O)c1 [Example 3, 3-(2,4-dioxotetrahydropyrimidin-1(2H)-yl)-N-(6-(2-(4-(((5-fluoro-4-oxo-7-((tetrahydro-2H-pyran-4-yl)methoxy)-3,4-dihydroquinazolin-2-yl)methyl)thio)piperidin-1-yl)acetamido)hexyl)benzamide]
< 100	O=C(CN1CCC(SCc2nc3cc(OCC4CCOCC4)cc(F)c3c(=O)[nH]2)CC1)NCCCCN1CCC(c2cccc(NC3CCC(=O)NC3=O)c2)CC1 (stereo not shown) [Example 13, N-(4-(4-(3-((2,6-dioxopiperidin-3-yl)amino)phenyl)piperidin-1-yl)butyl)-2-(4-(((5-fluoro-4-oxo-7-((tetrahydro-2H-pyran-4-yl)methoxy)-3,4-dihydroquinazolin-2-yl)methyl)thio)piperidin-1-yl)acetamide]
100 to 1000	CC(=O)N1CCC(COc2cc(F)c3c(=O)[nH]c(CSC4CCN(CC(=O)Nc5cccc6c5C(=O)N(C5CCC(=O)NC5=O)C6=O)CC4)nc3c2)CC1 (stereo not shown) [Example 31, 2-(4-(((7-((1-acetylpiperidin-4-yl)methoxy)-5-fluoro-4-oxo-3,4-dihydroquinazolin-2-yl)methyl)thio)piperidin-1-yl)-N-(2-(2,6-dioxopiperidin-3-yl)-1,3-dioxoisoindolin-4-yl)acetamide]
< 100	O=C(CN1CCC(SCc2nc3cc(OCC4CCOCC4)cc(F)c3c(=O)[nH]2)CC1)NCCCCCCN1CCC(c2ccc(NC3CCC(=O)NC3=O)cc2)CC1 (stereo not shown) [Example 5, N-(6-(4-(4-((2,6-dioxopiperidin-3-yl)amino)phenyl)piperidin-1-yl)hexyl)-2-(4-(((5-fluoro-4-oxo-7-((tetrahydro-2H-pyran-4-yl)methoxy)-3,4-dihydroquinazolin-2-yl)methyl)thio)piperidin-1-yl)acetamide]
< 100	O=C(CN1CCC(SCc2nc3cc(OCC4CCOCC4)cc(F)c3c(=O)[nH]2)CC1)NCC(=O)N1CCC(c2ccc(NC3CCC(=O)NC3=O)cc2)CC1 (stereo not shown) [Example 10, N-(2-(4-(4-((2,6-dioxopiperidin-3-yl)amino)phenyl)piperidin-1-yl)-2-oxoethyl)-2-(4-(((5-fluoro-4-oxo-7-((tetrahydro-2H-pyran-4-yl)methoxy)-3,4-dihydroquinazolin-2-yl)methyl)thio)piperidin-1-yl)acetamide]
